Source: ChEMBL document CHEMBL3046559, “Sterile oat (Avena sterilis L.) cross-resistance profile to ACCase-inhibiting herbicides in Greece” (2012)

Legend:
Assay type in all cases: functional
[1] = system: Avena sterilis; assay: Herbicidal activity against Avena sterilis accession P18 assessed as weed survival at 1 times field recommended herbicide dose
[2] = system: Avena sterilis; assay: Herbicidal activity against Avena sterilis accession P17 assessed as weed survival at 1 times field recommended herbicide dose
[3] = system: Avena sterilis; assay: Herbicidal activity against Avena sterilis accession P16 assessed as weed survival at 1 times field recommended herbicide dose
[4] = system: Avena sterilis; assay: Herbicidal activity against Avena sterilis accession P15 assessed as weed survival at 1 times field recommended herbicide dose
[5] = system: Avena sterilis; assay: Herbicidal activity against Avena sterilis accession P14 assessed as weed survival at 1 times field recommended herbicide dose
[6] = system: Avena sterilis; assay: Herbicidal activity against Avena sterilis accession P07 assessed as weed survival at 1 times field recommended herbicide dose
[7] = system: Avena sterilis; assay: Herbicidal activity against Avena sterilis accession P21S assessed as weed survival at 1/32 times field recommended herbicide dose
[8] = system: Avena sterilis; assay: Herbicidal activity against Avena sterilis accession P19S assessed as weed survival at 1/32 times field recommended herbicide dose
[9] = system: Avena sterilis; assay: Herbicidal activity against Avena sterilis accession P13S assessed as weed survival at 1/32 times field recommended herbicide dose
[10] = system: Avena sterilis; assay: Herbicidal activity against Avena sterilis accession P10S assessed as weed survival at 1/32 times field recommended herbicide dose
[11] = system: Avena sterilis; assay: Herbicidal activity against Avena sterilis accession P22 assessed as weed survival at 32 times field recommended herbicide dose
[12] = system: Avena sterilis; assay: Herbicidal activity against Avena sterilis accession P20 assessed as weed survival at 32 times field recommended herbicide dose
[13] = system: Avena sterilis; assay: Herbicidal activity against Avena sterilis accession P03 assessed as weed survival at 1 times field recommended herbicide dose
[14] = system: Avena sterilis; assay: Herbicidal activity against Avena sterilis accession P01 assessed as weed survival at 1 times field recommended herbicide dose
[15] = system: Avena sterilis; assay: Herbicidal activity against Avena sterilis accession P10S assessed as induction of weed mortality
[16] = system: Avena sterilis; assay: Herbicidal activity against Avena sterilis accession P06S assessed as induction of weed mortality
[17] = system: Avena sterilis; assay: Herbicidal activity against Avena sterilis accession P18 assessed as induction of weed mortality
[18] = system: Avena sterilis; assay: Herbicidal activity against Avena sterilis accession P16 assessed as induction of weed mortality
[19] = system: Avena sterilis; assay: Herbicidal activity against Avena sterilis accession P09 assessed as induction of weed mortality
[20] = system: Avena sterilis; assay: Herbicidal activity against Avena sterilis accession P07 assessed as induction of weed mortality
[21] = system: Avena sterilis; assay: Herbicidal activity against Avena sterilis accession P05 assessed as induction of weed mortality
[22] = system: Avena sterilis; assay: Herbicidal activity against Avena sterilis accession P02 assessed as induction of weed mortality
[23] = system: Avena sterilis; assay: Herbicidal activity against Avena sterilis accession P01 assessed as induction of weed mortality
[24] = system: Avena sterilis; assay: Herbicidal activity against Avena sterilis accession P14 assessed as weed survival at 8 times field recommended herbicide dose
[25] = system: Avena sterilis; assay: Herbicidal activity against Avena sterilis accession P16 assessed as weed survival at 32 times field recommended herbicide dose
[26] = system: Avena sterilis; assay: Herbicidal activity against Avena sterilis accession P15 assessed as weed survival at 32 times field recommended herbicide dose
[27] = system: Avena sterilis; assay: Herbicidal activity against Avena sterilis accession P07 assessed as weed survival at 32 times field recommended herbicide dose
[28] = system: Avena sterilis; assay: Herbicidal activity against Avena sterilis accession P05 assessed as weed survival at 8 times field recommended herbicide dose
[29] = system: Avena sterilis; assay: Herbicidal activity against Avena sterilis accession P02 assessed as weed survival at 32 times field recommended herbicide dose
[30] = system: Avena sterilis; assay: Herbicidal activity against Avena sterilis accession P21S assessed as weed survival at 1/16 times field recommended herbicide dose
[31] = system: Avena sterilis; assay: Herbicidal activity against Avena sterilis accession P06S assessed as weed survival at 1/16 times field recommended herbicide dose
[32] = system: Avena sterilis; assay: Herbicidal activity against Avena sterilis accession P22 assessed as weed survival at 16 times field recommended herbicide dose
[33] = system: Avena sterilis; assay: Herbicidal activity against Avena sterilis accession P18 assessed as weed survival at 16 times field recommended herbicide dose
[34] = system: Avena sterilis; assay: Herbicidal activity against Avena sterilis accession P17 assessed as weed survival at 16 times field recommended herbicide dose
[35] = system: Avena sterilis; assay: Herbicidal activity against Avena sterilis accession P15 assessed as weed survival at 16 times field recommended herbicide dose
[36] = system: Avena sterilis; assay: Herbicidal activity against Avena sterilis accession P12 assessed as weed survival at 16 times field recommended herbicide dose
[37] = system: Avena sterilis; assay: Herbicidal activity against Avena sterilis accession P11 assessed as weed survival at 16 times field recommended herbicide dose
[38] = system: Avena sterilis; assay: Herbicidal activity against Avena sterilis accession P09 assessed as weed survival at 16 times field recommended herbicide dose
[39] = system: Avena sterilis; assay: Herbicidal activity against Avena sterilis accession P02 assessed as weed survival at 16 times field recommended herbicide dose
[40] = system: Avena sterilis; assay: Herbicidal activity against Avena sterilis accession P21S assessed as weed survival at 1/8 times field recommended herbicide dose
[41] = system: Avena sterilis; assay: Herbicidal activity against Avena sterilis accession P10S assessed as weed survival at 1/8 times field recommended herbicide dose
[42] = system: Avena sterilis; assay: Herbicidal activity against Avena sterilis accession P06S assessed as weed survival at 1/8 times field recommended herbicide dose
[43] = system: Avena sterilis; assay: Herbicidal activity against Avena sterilis accession P22 assessed as weed survival at 8 times field recommended herbicide dose
[44] = system: Avena sterilis; assay: Herbicidal activity against Avena sterilis accession P20 assessed as weed survival at 8 times field recommended herbicide dose
[45] = system: Avena sterilis; assay: Herbicidal activity against Avena sterilis accession P18 assessed as weed survival at 8 times field recommended herbicide dose
[46] = system: Avena sterilis; assay: Herbicidal activity against Avena sterilis accession P11 assessed as weed survival at 8 times field recommended herbicide dose
[47] = system: Avena sterilis; assay: Herbicidal activity against Avena sterilis accession P09 assessed as weed survival at 8 times field recommended herbicide dose
[48] = system: Avena sterilis; assay: Herbicidal activity against Avena sterilis accession P21S assessed as weed survival at 1/4 times field recommended herbicide dose
[49] = system: Avena sterilis; assay: Herbicidal activity against Avena sterilis accession P22 assessed as weed survival at 4 times field recommended herbicide dose
[50] = system: Avena sterilis; assay: Herbicidal activity against Avena sterilis accession P18 assessed as weed survival at 4 times field recommended herbicide dose
[51] = system: Avena sterilis; assay: Herbicidal activity against Avena sterilis accession P14 assessed as weed survival at 4 times field recommended herbicide dose
[52] = system: Avena sterilis; assay: Herbicidal activity against Avena sterilis accession P11 assessed as weed survival at 4 times field recommended herbicide dose
[53] = system: Avena sterilis; assay: Herbicidal activity against Avena sterilis accession P05 assessed as weed survival at 4 times field recommended herbicide dose
[54] = system: Avena sterilis; assay: Herbicidal activity against Avena sterilis accession P06S assessed as weed survival at 1 times field recommended herbicide dose
[55] = system: Avena sterilis; assay: Herbicidal activity against Avena sterilis accession P07 assessed as weed survival at 4 times field recommended herbicide dose
[56] = system: Avena sterilis; assay: Herbicidal activity against Avena sterilis accession P01 assessed as weed survival at 4 times field recommended herbicide dose
[57] = system: Avena sterilis; assay: Herbicidal activity against Avena sterilis accession P21S assessed as weed survival at 1 times field recommended herbicide dose
[58] = system: Avena sterilis; assay: Herbicidal activity against Avena sterilis accession P13S assessed as weed survival at 1 times field recommended herbicide dose

COCc1cnc(C2=NC(C)(C(C)C)C(=O)N2)c(C(=O)O)c1 (centres undefined) [IMAZAMOX]
Survival [1]: 0%
Survival [2]: 3%
Survival [3]: 0%
Survival [4]: 0%
Survival [5]: 0%
Survival [6]: 0%
Survival [7]: 100%
Survival [8]: 100%
Survival [9]: 100%
Survival [10]: 100%
Survival [11]: 0%
Survival [12]: 0%
Survival [13]: 0%
Survival [14]: 0%
GR50 [15]: 7 gAi/ha
GR50 [16]: 9 gAi/ha
GR50 [17]: <50 gAi/ha
GR50 [18]: <50 gAi/ha
GR50 [19]: <50 gAi/ha
GR50 [20]: <50 gAi/ha
GR50 [21]: <50 gAi/ha
GR50 [22]: <50 gAi/ha
GR50 [23]: <50 gAi/ha
Survival [24]: 0%
Survival [25]: 0%
Survival [26]: 0%
Survival [27]: 0%
Survival [28]: 0%
Survival [29]: 0%
Survival [30]: 97%
Survival [31]: 93%
Survival [32]: 0%
Survival [33]: 0%
Survival [34]: 0%
Survival [35]: 0%
Survival [36]: 0%
Survival [37]: 0%
Survival [38]: 0%
Survival [39]: 0%
Survival [40]: 87%
Survival [41]: 60%
Survival [42]: 57%
Survival [43]: 0%
Survival [44]: 0%
Survival [45]: 0%
Survival [46]: 0%
Survival [47]: 0%
Survival [48]: 60%
Survival [49]: 0%
Survival [50]: 0%
Survival [51]: 0%
Survival [52]: 0%
Survival [53]: 0%
Survival [54]: 0%
Survival [55]: 0%
Survival [56]: 0%
Survival [57]: 0%
Survival [58]: 0%

CCc1cc(C)cc(CC)c1-c1c(OC(=O)C(C)(C)C)n2n(c1=O)CCOCC2 [PINOXADEN]
Survival [1]: 0%
Survival [2]: 0%
Survival [3]: 0%
Survival [4]: 20%
Survival [5]: 0%
Survival [6]: 0%
Survival [7]: 100%
Survival [8]: 100%
Survival [9]: 100%
Survival [10]: 100%
Survival [11]: 0%
Survival [12]: 0%
Survival [13]: 20%
Survival [14]: 20%
GR50 [15]: 4.1 gAi/ha
GR50 [16]: 3.5 gAi/ha
GR50 [17]: <40 gAi/ha
GR50 [18]: <40 gAi/ha
GR50 [19]: <40 gAi/ha
GR50 [20]: <40 gAi/ha
GR50 [21]: <40 gAi/ha
GR50 [22]: <40 gAi/ha
GR50 [23]: <40 gAi/ha
Survival [24]: 0%
Survival [25]: 0%
Survival [26]: 0%
Survival [27]: 0%
Survival [28]: 0%
Survival [29]: 0%
Survival [30]: 97%
Survival [31]: 80%
Survival [32]: 0%
Survival [33]: 0%
Survival [34]: 0%
Survival [35]: 0%
Survival [36]: 0%
Survival [37]: 0%
Survival [38]: 0%
Survival [39]: 0%
Survival [40]: 57%
Survival [41]: 20%
Survival [42]: 20%
Survival [43]: 0%
Survival [44]: 0%
Survival [45]: 0%
Survival [46]: 0%
Survival [47]: 0%
Survival [48]: 20%
Survival [49]: 0%
Survival [50]: 0%
Survival [51]: 0%
Survival [52]: 0%
Survival [53]: 0%
Survival [54]: 0%
Survival [55]: 0%
Survival [56]: 17%
Survival [57]: 0%
Survival [58]: 0%

CCO/N=C(\CC)C1=C(O)CC(c2c(C)cc(C)cc2C)CC1=O (centres undefined) [TRALKOXYDIM]
Survival [1]: 20%
Survival [2]: 50%
Survival [3]: 77%
Survival [4]: 70%
Survival [5]: 0%
Survival [6]: 23%
Survival [7]: 100%
Survival [8]: 100%
Survival [9]: 93%
Survival [10]: 97%
Survival [11]: 0%
Survival [12]: 20%
Survival [13]: 77%
Survival [14]: 60%
GR50 [15]: 29 gAi/ha
GR50 [16]: 32 gAi/ha
GR50 [17]: <400 gAi/ha
GR50 [18]: 907 gAi/ha
GR50 [19]: 532 gAi/ha
GR50 [20]: <400 gAi/ha
GR50 [21]: <400 gAi/ha
GR50 [22]: 1073 gAi/ha
GR50 [23]: 766 gAi/ha
Survival [24]: 0%
Survival [25]: 0%
Survival [26]: 0%
Survival [27]: 0%
Survival [28]: 10%
Survival [29]: 0%
Survival [30]: 80%
Survival [31]: 60%
Survival [32]: 20%
Survival [33]: 0%
Survival [34]: 0%
Survival [35]: 20%
Survival [36]: 0%
Survival [37]: 0%
Survival [38]: 0%
Survival [39]: 0%
Survival [40]: 77%
Survival [41]: 30%
Survival [42]: 30%
Survival [43]: 20%
Survival [44]: 40%
Survival [45]: 0%
Survival [46]: 0%
Survival [47]: 0%
Survival [48]: 33%
Survival [49]: 40%
Survival [50]: 20%
Survival [51]: 0%
Survival [52]: 0%
Survival [53]: 40%
Survival [54]: 0%
Survival [55]: 20%
Survival [56]: 43%
Survival [57]: 20%
Survival [58]: 0%
